These compounds were tested against Epidermal growth factor receptor (Homo sapiens, UniProt P00533).
Chain of Epidermal growth factor receptor (P00533 whole entry): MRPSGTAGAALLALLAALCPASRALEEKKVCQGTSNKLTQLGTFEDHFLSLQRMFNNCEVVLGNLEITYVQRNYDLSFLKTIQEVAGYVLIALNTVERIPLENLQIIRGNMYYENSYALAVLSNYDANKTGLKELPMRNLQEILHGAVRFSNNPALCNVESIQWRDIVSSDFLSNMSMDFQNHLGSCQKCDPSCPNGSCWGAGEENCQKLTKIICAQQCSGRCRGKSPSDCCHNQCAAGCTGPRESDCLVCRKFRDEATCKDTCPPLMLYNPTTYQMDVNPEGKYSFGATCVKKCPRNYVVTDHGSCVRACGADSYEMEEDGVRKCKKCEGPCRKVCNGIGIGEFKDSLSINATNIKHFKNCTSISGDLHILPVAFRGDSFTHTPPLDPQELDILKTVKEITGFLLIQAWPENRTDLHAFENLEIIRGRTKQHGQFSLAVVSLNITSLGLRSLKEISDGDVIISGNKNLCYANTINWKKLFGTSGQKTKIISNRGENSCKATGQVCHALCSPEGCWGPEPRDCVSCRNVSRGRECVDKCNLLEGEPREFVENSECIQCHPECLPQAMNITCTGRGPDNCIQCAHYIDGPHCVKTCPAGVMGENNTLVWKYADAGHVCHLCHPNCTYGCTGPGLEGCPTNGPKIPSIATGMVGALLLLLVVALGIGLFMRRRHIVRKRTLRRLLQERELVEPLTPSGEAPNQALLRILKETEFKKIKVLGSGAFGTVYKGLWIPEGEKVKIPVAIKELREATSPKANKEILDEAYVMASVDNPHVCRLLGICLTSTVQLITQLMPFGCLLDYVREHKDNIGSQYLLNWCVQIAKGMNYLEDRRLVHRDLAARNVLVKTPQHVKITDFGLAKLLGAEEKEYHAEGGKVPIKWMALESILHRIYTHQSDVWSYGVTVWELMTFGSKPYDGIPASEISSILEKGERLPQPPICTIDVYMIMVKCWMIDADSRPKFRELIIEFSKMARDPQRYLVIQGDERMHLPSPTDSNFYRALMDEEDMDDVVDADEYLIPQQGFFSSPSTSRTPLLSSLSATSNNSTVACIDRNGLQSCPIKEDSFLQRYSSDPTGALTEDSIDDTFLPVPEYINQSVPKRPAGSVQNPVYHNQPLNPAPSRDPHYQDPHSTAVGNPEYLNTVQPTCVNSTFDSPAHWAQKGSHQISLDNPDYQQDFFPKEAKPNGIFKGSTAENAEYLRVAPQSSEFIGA
Work on `COc1cc2ncnc(Nc3cccc(C#CCCO)c3)c2cc1OC` yielded an IC50 of 402 nM. With `COc1cc2ncnc(Nc3cccc(C#CC(C)(C)O)c3)c2cc1OC` the IC50 was 206 nM. `C#Cc1ccc2ncnc(Nc3ccc(F)c(Cl)c3)c2c1` gave an IC50 of 127 nM. For `Fc1ccc(Nc2ncnc3ccc(C#Cc4ccccc4)cc23)cc1Cl`, the IC50 was 331 nM. In the case of `OCC#Cc1ccc2ncnc(Nc3ccc(F)c(Cl)c3)c2c1`, the IC50 is reported as 14.1 nM. With `OCCC#Cc1ccc2ncnc(Nc3ccc(F)c(Cl)c3)c2c1` the IC50 was 186 nM. For `OCCCC#Cc1ccc2ncnc(Nc3ccc(F)c(Cl)c3)c2c1`, the IC50 was 114 nM. `CC(C)(O)C#Cc1ccc2ncnc(Nc3ccc(F)c(Cl)c3)c2c1` was tested, and the IC50 was 152 nM. Compound `Fc1ccc(Nc2ncnc3ccc(C#CCN4CCOCC4)cc23)cc1Cl` has an IC50 of 50.3 nM. Compound `Fc1ccc(Nc2ncnc3ccc(C#CCN4CCCCC4)cc23)cc1Cl` has an IC50 of 88.7 nM. Compound `C#Cc1cccc(Nc2ncnc3cc(OC)c(OC)cc23)c1` has an IC50 of 28.8 nM. In the case of `COc1cc2ncnc(Nc3cccc(C#Cc4ccccc4)c3)c2cc1OC`, the IC50 is reported as 921 nM. `COc1cc2ncnc(Nc3cccc(C#CCO)c3)c2cc1OC` was tested, and the IC50 was 1640 nM. In the case of `COc1cc2ncnc(Nc3cccc(C#CCCCO)c3)c2cc1OC`, the IC50 is reported as 1360 nM.

From ChEMBL document CHEMBL1140520, “Synthesis and biological evaluation of substituted 6-alkynyl-4-anilinoquinazoline derivatives as potent EGFR inhibitors” (Bioorg Med Chem Lett, 2007)
